The compounds below were run against hNPY1R (Homo sapiens (Human), UniProt P25929) (assay: NPY1R binding assay (SK-N-MC membrane, [125I]-Peptide YY competition)). Conditions: crude SK-N-MC membranes endogenously expressing NPY1R; [125I]-Peptide YY (human) 0.05 nM; 120 min at room temperature; read-out: hNPY1R binding Ki.
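Further: bound radioligand separated by filtration over GF/C filter plates and counted, Ki obtained by non-linear regression.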

hNPY1R, sequence (P25929 whole entry): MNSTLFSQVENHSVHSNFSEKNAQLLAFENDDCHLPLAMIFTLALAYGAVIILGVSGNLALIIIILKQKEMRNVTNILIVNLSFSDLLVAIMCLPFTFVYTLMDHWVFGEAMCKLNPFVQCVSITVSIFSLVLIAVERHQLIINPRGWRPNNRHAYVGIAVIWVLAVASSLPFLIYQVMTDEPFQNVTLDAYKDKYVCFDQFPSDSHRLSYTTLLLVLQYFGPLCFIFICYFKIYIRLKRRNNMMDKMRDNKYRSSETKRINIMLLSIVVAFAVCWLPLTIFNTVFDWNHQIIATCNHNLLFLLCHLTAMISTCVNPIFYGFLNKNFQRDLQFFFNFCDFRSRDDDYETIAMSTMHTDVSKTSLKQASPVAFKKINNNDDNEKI

Row | SMILES | Ki
1 | CCNC(=O)/N=C(/N)NCCC[C@@H](NC(=O)[C@H](c1ccccc1)N1Cc2cccc(NCCCN)c2C1)C(=O)NCc1c(F)cc(O)cc1F [compound 65, (R)-2-((S)-2-(4-((3-aminopropyl)amino)isoindolin-2-yl)-2-phenylacetamido)-N-(2,6-difluoro-4-hydroxybenzyl)-5-((Z)-2-(ethylcarbamoyl)guanidino)pentanamide] | < 10 nM
2 | CCNC(=O)/N=C(/N)NCCC[C@@H](NC(=O)C(c1ccccc1)N1Cc2ccccc2C1)C(=O)NCc1c(F)cc(O)cc1F (stereo partly drawn) [compound 67, (2R)—N-(2,6-difluoro-4-hydroxybenzyl)-5-((Z)-2-(ethylcarbamoyl)guanidino)-2-(2-(isoindolin-2-yl)-2-phenylacetamido)pentanamide] | < 10 nM
3 | N=C(N)NCCC[C@@H](NC(=O)C(c1ccccc1)N1Cc2ccccc2C1)C(=O)NCc1ccc(O)cc1 (stereo partly drawn) [compound 68, (2R)-5-guanidino-N-(4-hydroxybenzyl)-2-(2-(isoindolin-2-yl)-2-phenylacetamido)pentanamide] | 10 to 100 nM
4 | N=C(N)NCCC[C@@H](NC(=O)[C@H](c1ccccc1)N1Cc2ccccc2C1)C(=O)NCc1c(F)cc(O)cc1F [compound 69, (R)—N-(2,6-difluoro-4-hydroxybenzyl)-5-guanidino-2-((S)-2-(isoindolin-2-yl)-2-phenylacetamido)pentanamide] | < 10 nM
5 | N=C(N)NCCC[C@@H](NC(=O)[C@H](c1ccccc1)N1Cc2ccccc2C1)C(=O)NCc1ccc(O)cc1 [compound 70, (R)-5-guanidino-N-(4-hydroxybenzyl)-2-((S)-2-(isoindolin-2-yl)-2-phenylacetamido)pentanamide] | 10 to 100 nM
6 | N=C(N)NCCC[C@@H](NC(=O)C(c1ccccc1)N1CCCCC1)C(=O)NCc1ccc(O)cc1 (stereo partly drawn) [compound 72, (2R)-5-guanidino-N-(4-hydroxybenzyl)-2-(2-phenyl-2-(piperidin-1-yl)acetamido)pentanamide] | 100 to 1000 nM
7 | N=C(N)NCCC[C@@H](NC(=O)C(c1ccccc1)N1CCC(C(F)(F)F)CC1)C(=O)NCc1ccc(O)cc1 (stereo partly drawn) [compound 73, (2R)-5-guanidino-N-(4-hydroxybenzyl)-2-(2-phenyl-2-(4-(trifluoromethyl)piperidin-1-yl)acetamido)pentanamide] | 100 to 1000 nM
8 | CC1(C)CCN(C(C(=O)N[C@H](CCCNC(=N)N)C(=O)NCc2ccc(O)cc2)c2ccccc2)CC1 (stereo partly drawn) [compound 74, (2R)-2-(2-(4,4-dimethylpiperidin-1-yl)-2-phenylacetamido)-5-guanidino-N-(4-hydroxybenzyl)pentanamide] | 100 to 1000 nM
9 | CC1(C)CCCN(C(C(=O)N[C@H](CCCNC(=N)N)C(=O)NCc2ccc(O)cc2)c2ccccc2)C1 (stereo partly drawn) [compound 75, (2R)-2-(2-(3,3-dimethylpiperidin-1-yl)-2-phenylacetamido)-5-guanidino-N-(4-hydroxybenzyl)pentanamide] | 100 to 1000 nM
10 | N=C(N)NCCC[C@@H](NC(=O)C(c1ccccc1)N1CCN(c2ccccc2)CC1)C(=O)NCc1ccc(O)cc1 (stereo partly drawn) [compound 76, (2R)-5-guanidino-N-(4-hydroxybenzyl)-2-(2-phenyl-2-(4-phenylpiperazin-1-yl)acetamido)pentanamide] | > 1000 nM
11 | CC(C)C1CCN(C(C(=O)N[C@H](CCCNC(=N)N)C(=O)NCc2ccc(O)cc2)c2ccccc2)CC1 (stereo partly drawn) [compound 77, (2R)-5-guanidino-N-(4-hydroxybenzyl)-2-(2-(4-isopropylpiperidin-1-yl)-2-phenylacetamido)pentanamide] | 10 to 100 nM
12 | CCCC1CCN([C@H](C(=O)N[C@H](CCCNC(=N)N)C(=O)NCc2ccc(O)cc2)c2ccccc2)CC1 [compound 78, (R)-5-guanidino-N-(4-hydroxybenzyl)-2-((S)-2-phenyl-2-(4-propylpiperidin-1-yl)acetamido)pentanamide] | 100 to 1000 nM
13 | CCC1CCN(C(C(=O)N[C@H](CCCNC(=N)N)C(=O)NCc2ccc(O)cc2)c2ccccc2)CC1 (stereo partly drawn) [compound 79, (2R)-2-(2-(4-ethylpiperidin-1-yl)-2-phenylacetamido)-5-guanidino-N-(4-hydroxybenzyl)pentanamide] | 10 to 100 nM
14 | CC(C)(C)C1CCN(C(C(=O)N[C@H](CCCNC(=N)N)C(=O)NCc2ccc(O)cc2)c2ccccc2)CC1 (stereo partly drawn) [compound 80, (2R)-2-(2-(4-(tert-butyl)piperidin-1-yl)-2-phenylacetamido)-5-guanidino-N-(4-hydroxybenzyl)pentanamide] | 10 to 100 nM
15 | N=C(N)NCCC[C@@H](NC(=O)C(c1ccccc1)N1CCC(C2CC2)CC1)C(=O)NCc1ccc(O)cc1 (stereo partly drawn) [compound 81, (2R)-2-(2-(4-cyclopropylpiperidin-1-yl)-2-phenylacetamido)-5-guanidino-N-(4-hydroxybenzyl)pentanamide] | 100 to 1000 nM
16 | CC(C)CC1CCN(C(C(=O)N[C@H](CCCNC(=N)N)C(=O)NCc2ccc(O)cc2)c2ccccc2)CC1 (stereo partly drawn) [compound 82, (2R)-5-guanidino-N-(4-hydroxybenzyl)-2-(2-(4-isobutylpiperidin-1-yl)-2-phenylacetamido)pentanamide] | 100 to 1000 nM
17 | N=C(N)NCCC[C@@H](NC(=O)C(c1ccccc1)N1CCC(C2CCCCC2)CC1)C(=O)NCc1ccc(O)cc1 (stereo partly drawn) [compound 83, (2R)-2-(2-(4-cyclohexylpiperidin-1-yl)-2-phenylacetamido)-5-guanidino-N-(4-hydroxybenzyl)pentanamide] | > 1000 nM
18 | N=C(N)NCCC[C@@H](NC(=O)C(c1ccccc1)N1CCC2(CCCC2)CC1)C(=O)NCc1ccc(O)cc1 (stereo partly drawn) [compound 84, (2R)-5-guanidino-N-(4-hydroxybenzyl)-2-(2-phenyl-2-(8-azaspiro[4.5]decan-8-yl)acetamido)pentanamide] | 100 to 1000 nM
19 | N=C(N)NCCC[C@@H](NC(=O)C(c1ccccc1)N1CCC2(CC1)CC2)C(=O)NCc1ccc(O)cc1 (stereo partly drawn) [compound 85, (2R)-5-guanidino-N-(4-hydroxybenzyl)-2-(2-phenyl-2-(6-azaspiro[2.5]octan-6-yl)acetamido)pentanamide] | 10 to 100 nM
20 | N=C(N)NCCC[C@@H](NC(=O)C(c1ccccc1)N1CCC(c2ccccc2)CC1)C(=O)NCc1ccc(O)cc1 (stereo partly drawn) [compound 86, (2R)-5-guanidino-N-(4-hydroxybenzyl)-2-(2-phenyl-2-(4-phenylpiperidin-1-yl)acetamido)pentanamide] | 100 to 1000 nM
21 | N=C(N)NCCC[C@@H](NC(=O)C(c1ccccc1)N1CCC2(CCCCC2)CC1)C(=O)NCc1ccc(O)cc1 (stereo partly drawn) [compound 87, (2R)-5-guanidino-N-(4-hydroxybenzyl)-2-(2-phenyl-2-(3-azaspiro[5.5]undecan-3-yl)acetamido)pentanamide] | 100 to 1000 nM
22 | N=C(N)NCCC[C@@H](NC(=O)C(c1ccccc1)N1CCC2(CCC2)CC1)C(=O)NCc1ccc(O)cc1 (stereo partly drawn) [compound 89, (2R)-5-guanidino-N-(4-hydroxybenzyl)-2-(2-phenyl-2-(7-azaspiro[3.5]nonan-7-yl)acetamido)pentanamide] | 10 to 100 nM
23 | N=C(N)NCCC[C@@H](NC(=O)C(c1ccccc1)N1CCC2(CC1)CC(F)(F)C2)C(=O)NCc1ccc(O)cc1 (stereo partly drawn) [compound 90, (2R)-2-(2-(2,2-difluoro-7-azaspiro[3.5]nonan-7-yl)-2-phenylacetamido)-5-guanidino-N-(4-hydroxybenzyl)pentanamide] | 100 to 1000 nM
24 | CCNC(=O)/N=C(/N)NCCC[C@@H](NC(=O)C(c1ccccc1)N1CCC(C(C)(C)C)CC1)C(=O)NCc1ccc(O)cc1 (stereo partly drawn) [compound 91, (2R)-2-(2-(4-(tert-butyl)piperidin-1-yl)-2-phenylacetamido)-5-((Z)-2-(ethylcarbamoyl)guanidino)-N-(4-hydroxybenzyl)pentanamide] | < 10 nM
25 | CCNC(=O)/N=C(/N)NCCC[C@@H](NC(=O)C(c1ccccc1)N1CCC(C(C)(C)C)CC1)C(=O)NCc1c(F)cc(O)cc1F (stereo partly drawn) [compound 92, (2R)-2-(2-(4-(tert-butyl)piperidin-1-yl)-2-phenylacetamido)-N-(2,6-difluoro-4-hydroxybenzyl)-5-((Z)-2-(ethylcarbamoyl)guanidino)pentanamide] | < 10 nM
